Results from patent publication US12168646B2, “Aryl hydrocarbon receptor agonists and uses thereof” (NEXYS THERAPEUTICS, INC., priority 2022, dated 2024).
Where two headings read alike, the source gives them in different places.

How the values were obtained:
[1] = molecular target: T1, AhR (Homo sapiens, UniProt P35869); test: HT29 AhR Reporter Assay (HT29-Lucia AhR cells, QUANTI-Luc luminescence); assay type: cell-based; conditions: for EC50: 18-24 h, EC50 = concentration to reach half of maximum efficacy of reference compound VAF347; for Emax: read-out: HT29 AhR % efficacy
T1 construct: HT29-Lucia AhR cells were purchased from Invivogen (cat #ht21-ahr); host or cells: HT29-Lucia AhR cells
T1 sequence (P35869 11-848): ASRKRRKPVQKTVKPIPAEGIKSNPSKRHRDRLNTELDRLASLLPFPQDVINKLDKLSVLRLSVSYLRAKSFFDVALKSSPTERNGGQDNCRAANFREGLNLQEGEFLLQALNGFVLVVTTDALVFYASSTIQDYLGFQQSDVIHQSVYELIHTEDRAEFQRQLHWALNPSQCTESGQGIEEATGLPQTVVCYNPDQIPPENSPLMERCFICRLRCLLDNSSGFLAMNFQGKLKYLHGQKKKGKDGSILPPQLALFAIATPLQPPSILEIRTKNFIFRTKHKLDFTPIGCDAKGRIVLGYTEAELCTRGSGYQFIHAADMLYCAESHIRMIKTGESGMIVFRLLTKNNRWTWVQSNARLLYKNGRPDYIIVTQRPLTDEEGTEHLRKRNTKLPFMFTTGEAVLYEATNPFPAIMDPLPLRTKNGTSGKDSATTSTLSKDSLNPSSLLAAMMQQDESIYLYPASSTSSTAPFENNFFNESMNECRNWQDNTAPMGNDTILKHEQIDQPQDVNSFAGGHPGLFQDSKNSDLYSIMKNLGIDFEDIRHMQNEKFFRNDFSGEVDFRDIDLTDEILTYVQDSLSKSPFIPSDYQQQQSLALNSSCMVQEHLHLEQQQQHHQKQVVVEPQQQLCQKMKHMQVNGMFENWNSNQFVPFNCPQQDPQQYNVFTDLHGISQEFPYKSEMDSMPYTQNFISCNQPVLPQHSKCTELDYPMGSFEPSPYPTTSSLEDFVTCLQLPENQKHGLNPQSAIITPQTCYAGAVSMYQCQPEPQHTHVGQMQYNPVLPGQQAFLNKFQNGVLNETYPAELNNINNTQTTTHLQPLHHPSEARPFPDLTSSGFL
Experimental: Biological Data 1: HT29 AhR Reporter Assay HT29-Lucia AhR cells were purchased from Invivogen (cat #ht21-ahr). […] The cell suspension was removed from growth medium and rinsed gently with pre-warmed PBS (10 mL). Pre-warmed Trypsin (1 mL) was added, and cells were held at 30° C. for about 5 min and then detached by pipette. The dissociated cell clumps were gently pipetted up and down. The cells were resuspended in pre-warmed detection medium (DMEM, 10% FBS (30 min at 56° C.), 100 U/ml penicillin, 100 μg/ml streptomycin, and test article or vehicle) and counted. A cell suspension of ˜500,000 cells/mL in Detection medium was prepared. […] Samples (20 μL/well) were pipetted into a 96-well white (opaque), and QUANTI-Luc™ (50 μL/well) was added. The plate was gently tapped and then read in a luminometer (0.1 s reading time).

[2] = Stability in human feces (azo reduction in feces homogenate); assay type: in vitro ADME; conditions: pH 6.8, 37° C., under nitrogen
Experimental: Biological Data 2: Stability in Human Feces
Accordingly, selected azo compounds of the invention were exposed to human feces under conditions suitable to promote azo reduction.
The human feces from two donors were homogenized in isotonic phosphate buffered saline (pH 6.8) with a ratio of 1:10 (w/v). The tubes were sealed using sealing film. Test article was dissolved in isotonic phosphate buffer (pH 6.8) to form a working solution of 20 μM (if the solubility allows). An aliquot of working solution (50 μL) was added to the human feces homogenate (50 μL) for each time point (0, 1, 2, 4, 6 and 24 h) in duplicate and placed under nitrogen for about 1 minute in order to exhaust air, and then incubated at 37° C. After incubation at each pre-set time point, 1000 μL acetonitrile containing internal standard w as added to each tube to quench reaction. Samples were vortexed and centrifuged at 3700 rpm for 10 min and the supernatant was transferred for analysis (and diluted where necessary). The concentrations of test article and its metabolite (example 3) in the supernatants were determined using LC-MS/MS method. Sulfasalazine was used as a positive control. All incubations were performed in duplicate.

[3] = HT29-Lucia AhR cells, % efficacy = 100%*(TA-BG)/(Ref-BG), Ref = VAF347

SMILES	EC50 ([1]; HT29-Lucia AhR cells) [µM]	Emax [1, 3] [%]	% of parent remaining after incubation for 6 h [2] [%]	Emax [1] [%]
Nc1cc(Nc2nccc(-c3cccc(C(=O)O)c3)n2)ccc1C(F)(F)F [Example 24, 3-(2-((3-amino-4-(trifluoromethyl)phenyl)amino)pyrimidin-4-yl)benzoic acid]	> 30	5		
Nc1ccc(CC(=O)O)c(-c2ccnc(Nc3ccc(C(F)(F)F)cc3)n2)c1 [Example 10, 2-(4-amino-2-(2-((4-(trifluoromethyl)phenyl)amino)pyrimidin-4-yl)phenyl)acetic acid]	9.24	69		
COc1cc(/N=N/c2ccccc2-c2ccnc(Nc3ccc(C(F)(F)F)cc3)n2)ccc1C(=O)O [Example 42, (E)-2-methoxy-4-((2-(2-((4-(trifluoromethyl)phenyl)amino)pyrimidin-4-yl)phenyl)diazenyl)benzoic acid]			98	
Nc1cc(C(F)(F)F)ccc1Nc1nccc(-c2cccc(Cl)c2)n1 [Example 21, N^1-(4-(3-chlorophenyl)pyrimidin-2-yl)-4-(trifluoromethyl)benzene-1,2-diamine]	> 30	27		
O=S(=O)(O)c1cc(/N=N/c2ccccc2-c2ccnc(Nc3ccc(C(F)(F)F)cc3)n2)ccc1O [Example 50, (E)-2-hydroxy-5-((2-(2-((4-(trifluoromethyl)phenyl)amino)pyrimidin-4-yl)phenyl)diazenyl)benzenesulfonic acid]			10	
O=C(O)c1cc(/N=N/c2cccc(-c3ccnc(Nc4ccc(C(F)(F)F)cc4)n3)c2)ccc1O [Example 27, (E)-2-hydroxy-5-((3-(2-((4-(trifluoromethyl)phenyl)amino)pyrimidin-4-yl)phenyl)diazenyl)benzoic acid]			74	
Nc1ccc(C(=O)O)c(-c2ccnc(Nc3ccc(C(F)(F)F)cc3)n2)c1 [Example 7, 4-amino-2-(2-((4-(trifluoromethyl)phenyl)amino)pyrimidin-4-yl)benzoic acid]	> 30	29		
O=C(O)c1ccc(O)c(/N=N/c2ccccc2-c2ccnc(Nc3ccc(C(F)(F)F)cc3)n2)c1 [Example 36, (E)-4-Hydroxy-3-((2-(2-((4-(trifluoromethyl)phenyl)amino)pyrimidin-4-yl)phenyl)diazenyl)benzoic acid]			19	
CS(=O)(=O)c1ccc(N)c(-c2ccnc(Nc3ccc(C(F)(F)F)cc3)n2)c1 [Example 13, 4-(2-amino-5-(methylsulfonyl)phenyl)-N-(4-(trifluoromethyl)phenyl)pyrimidin-2-amine]	> 30			7
O=C(O)c1cc(O)ccc1/N=N/c1ccccc1-c1ccnc(Nc2ccc(C(F)(F)F)cc2)n1 [Example 38, (E)-5-hydroxy-2-((2-(2-((4-(trifluoromethyl)phenyl)amino)pyrimidin-4-yl)phenyl)diazenyl)benzoic acid]			4	
Nc1cccc(C(=O)O)c1-c1ccnc(Nc2ccc(C(F)(F)F)cc2)n1 [Example 9]	2.62			89
Nc1cc(Nc2nccc(-c3ccccc3C(=O)O)n2)ccc1C(F)(F)F [Example 23, 2-(2-((3-amino-4-(trifluoromethyl)phenyl)amino)pyrimidin-4-yl)benzoic acid]	> 30	33		
O=C(O)c1ccc(/N=N/c2ccccc2-c2ccnc(Nc3ccc(C(F)(F)F)cc3)n2)c(O)c1 [Example 40, (E)-3-hydroxy-4-((2-(2-((4-(trifluoromethyl)phenyl)amino)pyrimidin-4-yl)phenyl)diazenyl)benzoic acid]			22	
FC(F)(F)c1ccc(Nc2nccc(-c3cccc(Cl)c3)n2)cc1 [VAF347, reference compound]	0.026	100		
Nc1ccc(-c2ccnc(Nc3ccc(C(F)(F)F)cc3)n2)cc1Cl [Example 5, 4-(4-amino-3-chlorophenyl)-N-(4-(trifluoromethyl)phenyl)pyrimidin-2-amine]	20	46		
O=C(O)c1cc(/N=N/c2ccccc2-c2ccnc(Nc3ccc(C(F)(F)F)cc3)n2)ccc1O [Example 32, (E)-2-hydroxy-5-((2-(2-((4-(trifluoromethyl)phenyl)amino)pyrimidin-4-yl)phenyl)diazenyl)benzoic acid]			49	
Nc1cccc(-c2ccnc(Nc3ccc(C(=O)O)cc3)n2)c1 [Example 18, 4-((4-(3-aminophenyl)pyrimidin-2-yl)amino)benzoic acid]	> 30	10		
Nc1ccc(-c2ccnc(Nc3ccc(C(F)(F)F)cc3)n2)c(C(=O)O)c1 [Example 8, 5-amino-2-(2-((4-(trifluoromethyl)phenyl)amino)pyrimidin-4-yl)benzoic acid]	> 30	13		
Nc1cccc(-c2ccnc(Nc3cccc(C(=O)O)c3)n2)c1 [Example 20, 3-((4-(3-aminophenyl)pyrimidin-2-yl)amino)benzoic acid]	> 30	13		
Nc1ccc(-c2ccnc(Nc3ccc(C(F)(F)F)cc3)n2)cc1 [Example 1, 4-(4-aminophenyl)-N-(4-(trifluoromethyl)phenyl)pyrimidin-2-amine]	> 30			16
Nc1ccc(O)cc1-c1ccnc(Nc2ccc(C(F)(F)F)cc2)n1 [Example 12, 4-amino-3-(2-((4-(trifluoromethyl)phenyl)amino)pyrimidin-4-yl)phenol]	> 30			17
Nc1ccccc1-c1ccnc(Nc2ccc(C(F)(F)F)cc2)n1 [Example 3, 4-(2-aminophenyl)-N-(4-(trifluoromethyl)phenyl)pyrimidin-2-amine]	1.33			165
Nc1cccc(Nc2nccc(-c3ccccc3O)n2)c1 [Example 26, 2-(2-((3-aminophenyl)amino)pyrimidin-4-yl)phenol]	> 30	141		
Nc1cc(Nc2nccc(-c3cccc(Cl)c3)n2)ccc1C(F)(F)F [Example 22, N^1-(4-(3-chlorophenyl)pyrimidin-2-yl)-4-(trifluoromethyl)benzene-1,3-diamine]	0.018	124		
CS(=O)(=O)c1ccc(N)cc1-c1ccnc(Nc2ccc(C(F)(F)F)cc2)n1 [Example 14, 4-(5-amino-2-(methylsulfonyl)phenyl)-N-(4-(trifluoromethyl)phenyl)pyrimidin-2-amine]	16.9			51
Nc1ccc(Cl)cc1-c1ccnc(Nc2ccc(C(F)(F)F)cc2)n1 [Example 4, 4-(2-amino-5-chlorophenyl)-N-(4-(trifluoromethyl)phenyl)pyrimidin-2-amine]	> 30			18
Nc1cc(Cl)cc(-c2ccnc(Nc3ccc(C(F)(F)F)cc3)n2)c1 [Example 6, 4-(3-amino-5-chlorophenyl)-N-(4-(trifluoromethyl)phenyl)pyrimidin-2-amine]	> 30	15		
Nc1ccc(Nc2nccc(-c3ccccc3O)n2)cc1 [Example 25, 2-(2-((4-aminophenyl)amino)pyrimidin-4-yl)phenol]	6.92	21		
Nc1ccc(O)c(-c2ccnc(Nc3ccc(C(F)(F)F)cc3)n2)c1 [Example 11, 4-amino-2-(2-((4-(trifluoromethyl)phenyl)amino)pyrimidin-4-yl)phenol]	> 30			-17
